Assay results reported in US12662498B2 (priority 2017, dated 2026).

Columns and labels:
[1] = Heat cycling slurry maturation of amorphous Psilocybin (visual solubility, form fate); type: physicochemical; conditions: for Obs. at 20° C. / Obs. at 45° C. / Obs. at 50° C.: 20 vol.; for Obs. at 45° C.: 45° C. for 18 hours; for Obs. at 50° C.: 50° C. for 8 hours; for XRPD Data (form fate): solid isolated after heat cycling slurry maturation
Description: In order to generate amorphous material a small sample of Psilocybin (0.5 g) was dissolved in water (0.5 L, 1000 vol.), polish filtered and lyophilised. Psilocybin was recovered as an off white fibrous material (lot MC1368A; 412 mg, 82%, XRPD amorphous).
To assess visually solubility of the amorphous API and to induce form modification, a series of slurry maturations were performed as follows:
Psilocybin (15 mg) was charged to tubes. Solvent was then added at ambient temperature (20° C., 0.3 ml, 20 vol.) and the suspensions agitated. Observations were made. After 1 hour of stirring, samples were heated to 45° C. for 18 hours and observations made. Samples were heated to 50° C. for 8 hours and observations were made. The samples were agitated for 72 hours at 25° C. and subject to a final heat cycle, prior to isolation.

[2] = Hygroscopicity; type: physicochemical; conditions: high humidity / added to water
Source text: (§1) The psilocybin of the invention in the form Polymorph A or A′ has the general properties illustrated in Table 5 below: […]

[3] = Heat cycling slurry maturation of Psilocybin Pattern A in 24 solvents (visual solubility)
[4] = ICH stability study of psilocybin batches (appearance, water content, purity, assay); conditions: 2-8° C., 25° C./60% RH and 40° C./75% RH
[5] = Solubility in water; type: physicochemical
Source text: as §1

## CN(C)CCc1c[nH]c2cccc(OP(=O)(O)O)c12 [amorphous Psilocybin]
[1]; 4:1 EtOH/water
  Obs. at 20° C.: Susp.
  Obs. at 45° C.: Susp.
  Obs. at 50° C.: Susp.
[1]; 4:1 IPA/water
  Obs. at 20° C.: Susp.
  Obs. at 45° C.: Susp.
  Obs. at 50° C.: Susp.
[1]; 4:1 THF/water
  Obs. at 20° C.: Susp.
  Obs. at 45° C.: Susp.
  Obs. at 50° C.: Susp.
[1]; Acetonitrile
  Obs. at 20° C.: Susp.
  Obs. at 45° C.: Susp.
  Obs. at 50° C.: Susp.
  XRPD Data (form fate): Amorphous
[1]; Anisole
  Obs. at 20° C.: Susp.
  Obs. at 45° C.: Susp.
  Obs. at 50° C.: Susp.
  XRPD Data (form fate): Semi-crystalline
[1]; Benzotrifluoride
  Obs. at 20° C.: Susp.
  Obs. at 45° C.: Susp.
  Obs. at 50° C.: Susp.
  XRPD Data (form fate): Semi-crystalline
[1]; CPME
  Obs. at 20° C.: Susp.
  Obs. at 45° C.: Susp.
  Obs. at 50° C.: Susp.
  XRPD Data (form fate): Semi-crystalline
[1]; Chlorobenzene
  Obs. at 20° C.: Susp.
  Obs. at 45° C.: Susp.
  Obs. at 50° C.: Susp.
  XRPD Data (form fate): Semi-crystalline
[1]; Chlorobutane
  Obs. at 20° C.: Susp.
  Obs. at 45° C.: Susp.
  Obs. at 50° C.: Susp.
  XRPD Data (form fate): Pattern B
[1]; Chloroform
  Obs. at 20° C.: Susp.
  Obs. at 45° C.: Susp.
  Obs. at 50° C.: Susp.
[1]; Cyclohexane
  Obs. at 20° C.: Susp.
  Obs. at 45° C.: Susp.
  Obs. at 50° C.: Susp.
  XRPD Data (form fate): Semi-crystalline
[1]; EtOAc
  Obs. at 20° C.: Susp.
  Obs. at 45° C.: Susp.
  Obs. at 50° C.: Susp.
  XRPD Data (form fate): Semi-crystalline
[1]; EtOH
  Obs. at 20° C.: Susp.
  Obs. at 45° C.: Susp.
  Obs. at 50° C.: Susp.
  XRPD Data (form fate): Pattern D
[1]; Heptane
  Obs. at 20° C.: Susp.
  Obs. at 45° C.: Susp.
  Obs. at 50° C.: Susp.
  XRPD Data (form fate): Semi-crystalline
[1]; IPA
  Obs. at 20° C.: Susp.
  Obs. at 45° C.: Susp.
  Obs. at 50° C.: Susp.
  XRPD Data (form fate): Pattern B
[1]; MEK
  Obs. at 20° C.: Susp.
  Obs. at 45° C.: Susp.
  Obs. at 50° C.: Susp.
  XRPD Data (form fate): Semi-crystalline
[1]; MIBK
  Obs. at 20° C.: Susp.
  Obs. at 45° C.: Susp.
  Obs. at 50° C.: Susp.
  XRPD Data (form fate): Semi-crystalline
[1]; MeOH
  Obs. at 20° C.: Susp.
  Obs. at 45° C.: Susp.
  Obs. at 50° C.: Susp.
  XRPD Data (form fate): Semi-crystalline
[1]; Nitromethane
  Obs. at 20° C.: Susp.
  Obs. at 45° C.: Susp.
  Obs. at 50° C.: Susp.
  XRPD Data (form fate): Pattern B
[1]; TBME
  Obs. at 20° C.: Susp
  Obs. at 45° C.: Susp.
  Obs. at 50° C.: Susp.
  XRPD Data (form fate): Semi-crystalline
[1]; THF
  Obs. at 20° C.: Susp.
  Obs. at 45° C.: Susp.
  Obs. at 50° C.: Susp.
  XRPD Data (form fate): Semi-crystalline
[1]; Toluene
  Obs. at 20° C.: Susp.
  Obs. at 45° C.: Susp.
  Obs. at 50° C.: Susp.
[1]; Water
  Obs. at 20° C.: Susp.
  Obs. at 45° C.: Susp.
  Obs. at 50° C.: Susp.
[1]; iPrOAc
  Obs. at 20° C.: Susp.
  Obs. at 45° C.: Susp.
  Obs. at 50° C.: Susp.
  XRPD Data (form fate): Semi-crystalline

## CN(C)CCc1c[nH]c2cccc(OP(=O)(O)O)c12 [Psilocybin, 3-[2-(dimethylazaniumyl) Ethyl]-1H-indol-4-yl Hydrogen Phosphate]
[2]
  Hygroscopicity: Psilocybin forms Hydrate A at high
[3]; 30 volumes at 50° C.
  solubility in the solvents and solvent mixtures tested: largely insoluble
[3]; Water, 50° C.
  solubility in water: did solubilise
[4]
  chemical stability over the first 12 months of the ICH stability study: chemically stable
[5]
  solubility: ~15 mg/mL
